Read-outs that look alike come from different tables or passages of the source.
How the values were obtained:
P. knowlesi YH1 strain = assay: microbe, parasite or virus in culture; format: cell-based, Plasmodium knowlesi; conditions: read-out: IC50 (S.D.), P. knowlesi
Procedure: (§1) The P. falciparum strains 3D7 and Dd2 were obtained from the Walter and Eliza Hall Institute (Melbourne, Australia) and the Malaria Research and Reference Reagent Resource, respectively. […] B. divergens parasites were maintained and assayed in mixed stages without synchronization.
(§2) Ring-stage P. falciparum (1%-parasitemia starting, 1%-hematocrit) and asynchronous B.divergens (0.5%-parasitemia starting, 3%-hematocrit) were incubated with plated compounds for 72h, and ring-stage P. knowlesi (1%-parasitemia starting, 1%-hematocrit) for 48h, before lysis and staining with dye. To quantify the species-specificity of the inhibitors, we divided the range of IC50s across the 4 test lines by the average IC50 across the same lines: inhibitors with increased scores show species-specific activity and reduced scores indicate broad-spectrum, pan-species activity.

P. falciparum strain Dd2 = assay: Inhibitor susceptibility dose-response assay (SYBR-Green I), P. falciparum Dd2; format: cell-based, Plasmodium falciparum; conditions: read-out: IC50 (S.D.), P. falciparum-Dd2
Procedure: as §1, §2

P. falciparum strain 3D7 = assay: Inhibitor susceptibility dose-response assay (SYBR-Green I), P. falciparum 3D7; format: cell-based, Plasmodium falciparum; conditions: read-out: IC50 (S.D.), P. falciparum-3D7
Procedure: as §1, §2

in vitro = conditions: human
Description: (§3) We analyzed samples using a volumetric MACSQuant Analyzer Flow Cytometer (Miltenyi Biotec), manually resuspending each row immediately prior to sample uptake. We recorded 10,000 total events for each condition at the instrument-defined low flow rate. We assessed all compounds in 2 separate experiments with blood from different donors. […] All samples were gated for single cell events.

[1] = tested on: alloresponsive T cell proliferation; design: method as in PMID 24131367; conditions: ref PMID 24131367; read-out: Micromolar IC50 (alloresponsive T cell proliferation); cited from earlier work
[2] = tested on: BdC9 line of B. divergens; assay: Inhibitor susceptibility dose-response assay (SYBR-Green I), B. divergens; format: cell-based, Babesia divergens; conditions: for IC50: read-out: IC50 (S.D.), B. divergens; for fold lower IC50s against B. divergens than the Plasmodium spp.: B. divergens vs Plasmodium spp.
Procedure: as §1, §2

uninfected RBCs [3] = assay: Cellular phosphatidylserine exposure assay (annexin V flow cytometry);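 also: flow cytometry recording 10,000 events per condition, gated on single cells, with the two experiments using blood from separate donors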
P. falciparum (3D7) = assay: Assay for inhibition of parasite proliferation via RBC-targeting (transient exposure of RBCs, wash, then infection); format: cell-based, Plasmodium falciparum; conditions: for antimalarial activity retained after transient exposure of RBCs, relative to continuous exposure to inhibitor: 5x P. falciparum 3D7-IC50, RBC preincubation 4-5 hours then washed, 100% = inhibition with continuous exposure, P<0.01; for inhibitory activity following transient exposure of RBCs, in words: transient vs continued exposure, dose-response format where stated, n=3
Procedure: All plates were frozen for storage before assay. For assay, duplicate plates were preincubated with donor O+ RBCs at 2% hematocrit at 37°C in 50µL for 4-5 hours. Following preincubation, one but not the other plate in each pair was washed 4X in complete RPMI to dilute inhibitor. We transferred RBCs from both washed and unwashed plates to black, clear bottom 96-well plates (Corning Cat. No. 3904) and supplemented these suspensions with MACS-purified P. falciparum (3D7) schizonts for a starting parasitemia of 0.1% - 0.25% at 1% hematocrit. Following 72h incubation in standard culture conditions, samples were processed for SYBR-Green I signal ([Mandt et al., 2019]). […] To identify host-targeting compounds, we compared DMSO-treated to inhibitor-treated samples (Students t-test, paired). We carried out the assay with 1 µM mefloquine (Sigma-Aldrich Cat. No. M2319) as a control for reversible inhibition. All assays were conducted in biological triplicate, with each experiment utilizing different donor RBCs. For select compounds, we carried out this same assay in a dose-response series (n=3 experiments). Following normalization to DMSO-controls, we assessed inhibitor activity following transient exposure of RBCs by Two-Way ANOVA tests for repeated measures (Graphpad Prism v9): high P values indicate support for the null hypothesis that dose-dependent inhibition is not modulated by dilution after exposure, consistent with a direct inhibitory effect of the compounds on RBCs persisting after transient exposure.

RBC = conditions: read-out: Micromolar IC50 (RBC), PS exposure, cited from earlier work
[4] = target: ELK1-luciferase assay, HeLa; conditions: read-out: Micromolar IC50 (ELK1-luciferase assay, HeLa); ref PMID 15225706; cited from earlier work
HCT-116 = conditions: read-out: Micromolar IC50 (anchorage formation, HCT-116); ref PMID 15225706; cited from earlier work
uninfected RBCs [5] = tested on: uninfected RBCs
Description: as §3

AQP3 = tested on: AQP3; design: method as in PMID 22624030; conditions: RBC assay: AQP3 glycerol conductance ref PMID 22624030; read-out: Micromolar IC50 (RBC), AQP3 glycerol conductance; cited from earlier work
human epithelial cells = tested on: human epithelial cells; design: method as in PMID 17145850; conditions: cellular proliferation ref PMID 17145850; read-out: Micromolar IC50 (human epithelial cells); cited from earlier work
[6] = tested on: AP-1 transcription factor activation; design: method as in PMID 17175522; conditions: ref PMID 17175522; read-out: Micromolar IC50 (AP-1 transcription factor activation); cited from earlier work
sickle RBCs = tested on: sickle RBCs; design: method as in PMID 33208899; conditions: RBC assay: PS exposure in sickle RBCs ref PMID 33208899; read-out: Micromolar IC50 (RBC), PS exposure in sickle RBCs; cited from earlier work
[7] = uninfected RBCs (red blood cells), 1% hematocrit
[8] = 24h, 5x P. falciparum 3D7-IC50, % of RBCs, mean of 2 experiments
[9] = 48h, 5x P. falciparum 3D7-IC50, % of RBCs, mean of 2 experiments
[10] = 72h, 5x P. falciparum 3D7-IC50, % of RBCs, mean of 2 experiments
[11] = Plasmodium falciparum, DD2, 72 h
[12] = Plasmodium falciparum, 3D7, 72 h
[13] = 72h, ring-stage, n=3 experiments (or 2 where indicated with *)

Compound | IC50 (P. knowlesi YH1 strain; Plasmodium knowlesi, 48 h) | hemolysis at 24 h, 5 x P. falciparum 3D7-IC50 (in vitro; [7]) | hemolysis at 48 h, 5 x P. falciparum 3D7-IC50 (in vitro; [7]) | hemolysis at 72 h, 5 x P. falciparum 3D7-IC50 (in vitro; [7]) | Phosphatidylserine exposure (%) 24h (uninfected RBCs [3]; [8]) | Phosphatidylserine exposure (%) 48h (uninfected RBCs [3]; [9]) | Phosphatidylserine exposure (%) 72h (uninfected RBCs [3]; [10]) | IC50 (P. falciparum strain Dd2; [11]) | IC50 (P. falciparum strain 3D7; [12]) | IC50 ([2]; Babesia divergens, 72 h) | Phosphatidylserine exposure (%) 72h (uninfected RBCs [3]) | further results
CN1CCN(c2nc(C3=C(c4c[nH]c5ccccc45)C(=O)NC3=O)c3ccccc3n2)CC1 [Sotrastaurin] | 5 µM | -7% | 9% | 17% | 2% | 2% | 4% | – | – | – | – | IC50 (P. falciparum strain Dd2; Plasmodium falciparum, DD2, 72h, ring-stage, n=3 experiments (or 2 where indicated with *)): 3 µM; IC50 (P. falciparum strain 3D7; Plasmodium falciparum, 3D7, 72h, ring-stage, n=3 experiments (or 2 where indicated with *)): 5 µM; IC50 [1]: 0.09 µM; IC50 ([2]; Babesia divergens, 72h, asynchronous, n=3 experiments (or 2 where indicated with *)): 10 µM
Oc1ccc2ccccc2c1SSc1c(O)ccc2ccccc12 [IPA-3] | 4 µM | -14% | 11% | 30% | 29% | 35% | 35% | 5 µM | 5 µM | 15 µM | – | antimalarial activity retained after transient exposure of RBCs, relative to continuous exposure to inhibitor (P. falciparum (3D7)): ≥ 80%; inhibitory activity following transient exposure of RBCs, in words (P. falciparum (3D7)): statistically indistinguishable from inhibition with continued exposure; IC50 (RBC; RBC assay: PS exposure ref PMID 21214270): < 5 µM
N#CC(=C(N)Sc1ccccc1N)C(C#N)=C(N)Sc1ccccc1N [U0126] | 20 µM | – | – | – | 2% | – | – | 3.9 µM | 5.3 µM | 30 µM | 9% | IC50 [4]: 0.293 µM; hemolysis at 24 h, 5 x P. falciparum 3D7-IC50 (in vitro): 3%; hemolysis at 48 h, 5 x P. falciparum 3D7-IC50 (in vitro): 9%; hemolysis at 72 h, 5 x P. falciparum 3D7-IC50 (in vitro): 20%; Phosphatidylserine exposure (%) 48h (uninfected RBCs [3]): 4%; IC50 (HCT-116): 19.4 µM
[Cl][Au]([Cl])[Cl].c1cnc2c(c1)ccc1cccnc12 [Auphen] | – | – | – | – | – | – | – | – | – | – | 24% | IC50 (P. knowlesi YH1 strain; 48h, ring-stage, n=3 experiments (or 2 where indicated with *)): 2 µM; IC50 (P. falciparum strain Dd2; [13]): 0.61 µM; IC50 (P. falciparum strain 3D7; [13]): 1.1 µM; IC50 ([2]; 72h, asynchronous, n=3 experiments (or 2 where indicated with *)): 2.8 µM; Phosphatidylserine exposure (%) 24h (uninfected RBCs [3]): 3%; Phosphatidylserine exposure (%) 48h (uninfected RBCs [3]): 10. %; Hemolysis (%) 24h (uninfected RBCs [5]): -7%; Hemolysis (%) 48h (uninfected RBCs [5]): 5%; Hemolysis (%) 72h (uninfected RBCs [5]): 10. %; IC50 (AQP3): 0.8 µM
CN(C)CCOc1ccc(-c2nc(-c3ccncc3)c(-c3ccc4c(c3)CC/C4=N\O)[nH]2)cc1 [SB590885] | 1.4 µM | -4% | 4% | 11% | 2% | 2% | 4% | 1 µM | 0.7 µM | 4 µM | – | IC50 (human epithelial cells): 1.1 to 6.1 µM
CCCCCCCCc1ccc(CCC(N)(CO)CO)cc1 [FTY720] | 2.2 µM | 4% | 23% | 25% | 4% | 21% | 34% | 3.5 µM | 3.9 µM | 14 µM | – | IC50 (RBC; RBC assay: PS exposure ref PMID 21063113): 5 to 10 µM
COc1ccc2c(c1)c(C1=C(c3c[nH]c4ccccc34)C(=O)NC1=O)cn2CCCN(C)C [Go6983] | 4 µM | -7% | 5% | 12% | 2% | 2% | – | 2 µM | 2 µM | 0.5 µM | 4% | fold lower IC50s against B. divergens than the Plasmodium spp. [2]: at least 3 fold; IC50 [6]: 0.1 µM
Clc1cccc(Cl)c1CSc1nnc(-c2cnccn2)s1 [Yoda1] | 7 µM | 7% | 38% | 57% | – | 100. % | 100. % | 6 µM | 4.2 µM | 1.11 µM | – | antimalarial activity retained after transient exposure of RBCs, relative to continuous exposure to inhibitor (P. falciparum (3D7)): ≥ 80%; inhibitory activity following transient exposure of RBCs, in words (P. falciparum (3D7)): statistically indistinguishable from inhibition with continued exposure; IC50 (sickle RBCs): ~2 µM; fold lower IC50s against B. divergens than the Plasmodium spp. [2]: at least 3 fold; hemolysis of RBCs, in words (uninfected RBCs [5]; 5x P. falciparum 3D7-IC50, 24, 48, 72h): rapid onset of hemolysis comparable to control compound A23187

From article PMC10988762, “Inhibition of malaria and babesiosis parasites by putative red blood cell targeting small molecules” (Frontiers in Cellular and Infection Microbiology, 2024)
